We go through six molecules from US6576624B1, “Use of dopamine receptor antagonists in palliative tumor therapy” (Zentaris AG, priority 1996, dated 2003).

Read-outs that look alike come from different tables or passages of the source. Marks after values point to notes of the source that are not given here.

The conditions of data set [1]: for Changes of body weight, Control AUC, day 7 / Changes of body weight, D-18506(4 × 68.1 mg/kg p.o.) AUC, day 7 / Changes of body weight, D-21266(4 × 46.4 mg/kg p.o.) AUC, day 7: AUC to day 7; for Changes of body weight, Control AUC, day 7 / Changes of body weight, Control AUC, day 11: asterisks = comparison with control group; for Changes of body weight, D-18506(4 × 68.1 mg/kg p.o.) AUC, day 7 / Changes of body weight, D-18506(4 × 68.1 mg/kg p.o.) AUC, day 11: compared with D-18506 alone (D-18506 4 × 68.1 mg/kg p.o. alone); for Changes of body weight, D-18506(4 × 68.1 mg/kg p.o.) AUC, day 7 / Changes of body weight, D-18506(4 × 68.1 mg/kg p.o.) AUC, day 11 / Changes of body weight, D-21266(4 × 46.4 mg/kg p.o.) AUC, day 7 / Changes of body weight, D-21266(4 × 46.4 mg/kg p.o.) AUC, day 11: same i.p. doses as c1; for Changes of body weight, Control AUC, day 11 / Changes of body weight, D-18506(4 × 68.1 mg/kg p.o.) AUC, day 11 / Changes of body weight, D-21266(4 × 46.4 mg/kg p.o.) AUC, day 11: AUC to day 11; for Changes of body weight, D-21266(4 × 46.4 mg/kg p.o.) AUC, day 7 / Changes of body weight, D-21266(4 × 46.4 mg/kg p.o.) AUC, day 11: compared with D-21266 alone (D-21266 4 × 46.4 mg/kg p.o. alone); for Effect on body weight development of animals treated with octadecyl(1,1-dimethylpiperidinio-4-yl)phosphate: simultaneous administration with D-21266, normal rats, FIGS. 7 and 8, Table 2.
Description: Comparative studies with respect to body weight changes in healthy and tumor-bearing rats were investigated after administration of miltefosine or octadecyl(1,1-dimethylpiperidinio-4-yl)phosphate alone and in combination with various appetite-stimulating compounds.

The conditions of data set [2]: cancer patients; Eur. J. Cancer 29A, 208-209, 1993; cited from earlier work.
For data set [3], the system named is DMBA-induced breast tumor. Briefly: Anti-tumor action on DMBA-induced breast tumor of rats. The data set is classed as in vivo, rat. As to conditions: rats with DMBA-induced breast tumor; FIGS. 11-12.
[4] abbreviates: Table 1, rat, i.p. mg/kg: Domperidone 0.1, Pimozide 0.2, Metoclopramide 0.2, Cyproheptadine 2.5, combinations with D-18506 4 × 68.1 mg/kg p.o.
Setting [5] is: Table 2, rat, i.p. mg/kg: Pimozide 0.1, Cyproheptadine 2.5, Metoclopramide 0.2, Domperidone 0.1, combinations with D-21266 4 × 46.4 mg/kg p.o.

As to `O=c1[nH]c2ccccc2n1C1CCN(CCCC(c2ccc(F)cc2)c2ccc(F)cc2)CC1` [Pimozide, pimozide], in data set [1] (setting [4]), the “Changes of body weight, Control AUC, day 7” value (shortened to “Changes … Control AUC, day 7”) was 30.4** and the “Changes of body weight, Control AUC, day 11” value (“Changes … Control AUC, day 11” for short) is on record as 69.8**. In data set [1] (Table 1, rat), the “Changes of body weight, D-18506(4 × 68.1 mg/kg p.o.) AUC, day 7” value is 30.4** and the “Changes of body weight, D-18506(4 × 68.1 mg/kg p.o.) AUC, day 11” value is given as 69.8**. Further, in data set [1] (setting [5]), the “Changes … Control AUC, day 7” value is 31.2** and the “Changes … Control AUC, day 11” value is recorded as 67.5**. Further, in data set [1] (Table 2, rat), the “Changes of body weight, D-21266(4 × 46.4 mg/kg p.o.) AUC, day 7” value is 31.2** and the “Changes of body weight, D-21266(4 × 46.4 mg/kg p.o.) AUC, day 11” value is 67.5**.
On to `CCCCCCCCCCCCCCCCOP(=O)([O-])OCC[N+](C)(C)C` [D-18506, miltefosine], for which, in data set [2], the “Side effects in patients treated with miltefosine” value is on record as “marked loss of body weight”. For the same molecule, in data set [1] (Table 1, rat), the “Changes of body weight, D-18506(4 × 68.1 mg/kg p.o.) AUC, day 7” value was −17.9 and the “Changes of body weight, D-18506(4 × 68.1 mg/kg p.o.) AUC, day 11” value is on record as −23.5. In addition, the “Body weight change on administration of miltefosine alone” value in data set [1] (rat, in vivo) is “clear loss of weight”.
Regarding `CCCCCCCCCCCCCCCCCCOP(=O)([O-])OC1CC[N+](C)(C)CC1` [D-21266, octadecyl(1,1-dimethylpiperidinio-4-yl)phosphate], in data set [1] (Table 2, rat), the “Changes of body weight, D-21266(4 × 46.4 mg/kg p.o.) AUC, day 7” value stood at 10.6 and the “Changes of body weight, D-21266(4 × 46.4 mg/kg p.o.) AUC, day 11” value is reported as 37.1. In data set [1] (rat, in vivo), the “Body weight development after octadecyl(1,1-dimethylpiperidinio-4-yl)phosphate alone” value is listed as “increase in weight less than the control animals”.
Consider `CN1CCC(=C2c3ccccc3C=Cc3ccccc32)CC1` [Cyproheptadine, cyproheptadine], for which, in data set [1] (setting [4]), the “Changes … Control AUC, day 7” value is 0.8 and the “Changes … Control AUC, day 11” value was determined as 15.5. In data set [1] (Table 1, rat), the “Changes of body weight, D-18506(4 × 68.1 mg/kg p.o.) AUC, day 7” value came to 0.8 and the “Changes of body weight, D-18506(4 × 68.1 mg/kg p.o.) AUC, day 11” value is reported as 15.5. Besides, in data set [1] (setting [5]), the “Changes … Control AUC, day 7” value is 1.5 and the “Changes … Control AUC, day 11” value worked out at 20.6. In data set [1] (Table 2, rat), the “Changes of body weight, D-21266(4 × 46.4 mg/kg p.o.) AUC, day 7” value was 1.5 and the “Changes of body weight, D-21266(4 × 46.4 mg/kg p.o.) AUC, day 11” value was 20.6. In addition, the “Effect on body weight development of animals treated with octadecyl(1,1-dimethylpiperidinio-4-yl)phosphate” value (“Effect on body weight development” for short) in data set [1] is on record as “no significant effect”.
As for `CCN(CC)CCNC(=O)c1cc(Cl)c(N)cc1OC` [Metoclopramide, metoclopramide], in data set [1] (setting [4]), the “Changes … Control AUC, day 7” value turned out to be 11.5 and the “Changes … Control AUC, day 11” value is listed as 30.5. Moreover, in data set [1] (Table 1, rat), the “Changes of body weight, D-18506(4 × 68.1 mg/kg p.o.) AUC, day 7” value is recorded as 11.5** and the “Changes of body weight, D-18506(4 × 68.1 mg/kg p.o.) AUC, day 11” value is recorded as 30.5**. In data set [1] (setting [5]), the “Changes … Control AUC, day 7” value is 19.2 and the “Changes … Control AUC, day 11” value is given as 49.4. In data set [1] (Table 2, rat), the “Changes of body weight, D-21266(4 × 46.4 mg/kg p.o.) AUC, day 7” value amounted to 19.2 and the “Changes of body weight, D-21266(4 × 46.4 mg/kg p.o.) AUC, day 11” value is recorded as 49.4. For the same molecule, the “Effect on body weight development” value in data set [1] is on record as “no significant effect”. In data set [1] (simultaneous administration with miltefosine, healthy and tumor-bearing rats, domperidone or pimozide 5×0.1 mg/kg i.p.), the “Effect on the loss of weight caused by miltefosine” value is recorded as “does not lead to any positive effect”.
Take `O=c1[nH]c2ccccc2n1CCCN1CCC(n2c(=O)[nH]c3cc(Cl)ccc32)CC1` [Domperidone, domperidone]: the “Effect on anti-tumor action of octadecyl(1,1-dimethylpiperidinio-4-yl)phosphate” value in data set [3] is reported as “without affecting the anti-tumor action”. In data set [1], the “Effect on body weight development” value is reported as “more than compensated”. Besides, the “Body weight development, alone and in combination with octadecyl(1,1-dimethylpiperidinio-4-yl)phosphate” value in data set [1] (tumor-bearing rats, FIGS. 9-10) is on record as “increase the body weight development”.
